In PubChem BioAssay AID1919008 (Molecular Pharmacology Branch, DTP, NCI, 2023):

Test system: DMS-114 complex spheroids with HUVEC/MSC, growth % test/control
Assay: Anticancer human tumor DMS-114 cell line growth inhibition [AhR];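 note: spheroids exposed to agents for 7 days before readout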;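 for viability, T/C: 100% = DMSO vehicle control wells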
Conditions: for IC50: curve of first compound; for viability, T/C: stronger effect = lower value
Method in brief: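 Spheroids combined tumor cells with HUVEC endothelial cells and human MSCs as stroma. AhR antagonists were paired with standard or investigational drugs, each dosed in half-log steps down from near clinical Cmax, or from 10 microM where Cmax was unknown.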

[1] = second compound 0.1 µM, first compound 0.0316 µM
[2] = second compound 0.1 µM, first compound 0.1 µM
[3] = second compound 0.1 µM, first compound 0.316 µM
[4] = second compound 0.1 µM, first compound 1 µM
[5] = second compound 0.1 µM, first compound 3.16 µM
[6] = second compound 0.1 µM, first compound 10 µM
[7] = second compound 0.316 µM, first compound 0.0316 µM
[8] = second compound 0.316 µM, first compound 0.1 µM
[9] = second compound 0.316 µM, first compound 0.316 µM
[10] = second compound 0.316 µM, first compound 1 µM
[11] = second compound 0.316 µM, first compound 3.16 µM
[12] = second compound 0.316 µM, first compound 10 µM
[13] = second compound 1 µM, first compound 0.0316 µM
[14] = second compound 1 µM, first compound 0.1 µM
[15] = second compound 1 µM, first compound 0.316 µM
[16] = second compound 1 µM, first compound 1 µM
[17] = second compound 1 µM, first compound 3.16 µM
[18] = second compound 1 µM, first compound 10 µM
[19] = second compound 3.16 µM, first compound 0.0316 µM
[20] = second compound 3.16 µM, first compound 0.1 µM
[21] = second compound 3.16 µM, first compound 0.316 µM
[22] = second compound 3.16 µM, first compound 1 µM
[23] = second compound 3.16 µM, first compound 3.16 µM
[24] = second compound 3.16 µM, first compound 10 µM
[25] = second compound 10 µM, first compound 0.0316 µM
[26] = second compound 10 µM, first compound 0.1 µM
[27] = second compound 10 µM, first compound 0.316 µM
[28] = second compound 10 µM, first compound 1 µM
[29] = second compound 10 µM, first compound 3.16 µM
[30] = second compound 10 µM, first compound 10 µM

Compound | IC50 (second compound 0.1 µM) [nM] | IC50 (second compound 0.316 µM) [nM] | IC50 (second compound 1 µM) [nM] | IC50 (second compound 3.16 µM) [nM] | IC50 (second compound 10 µM) [nM] | viability, T/C [1] [%] | viability, T/C [2] [%] | viability, T/C [3] [%] | viability, T/C [4] [%] | viability, T/C [7] [%] | viability, T/C [8] [%] | viability, T/C [9] [%] | viability, T/C [10] [%] | viability, T/C [13] [%] | viability, T/C [14] [%] | viability, T/C [15] [%] | viability, T/C [16] [%] | viability, T/C [19] [%] | viability, T/C [20] [%] | viability, T/C [21] [%] | further results
CC(C)c1c(-c2ccccc2)nc2c(C#N)c[nH]n2c1=O + Cc1ccccc1N=Nc1ccc(NC(=O)c2ccnn2C)c(C)c1 | > 10000 | > 10000 | > 10000 | > 10000 | > 10000 | 104 | 108 | 105 | 103 | 95.5 | 97.7 | 98.9 | 94.3 | 95.3 | 96.8 | 102 | 103 | 96 | 95.8 | 93 | viability, T/C [5]: 113%; viability, T/C [6]: 95.9%; viability, T/C [11]: 95.9%; viability, T/C [12]: 101%; viability, T/C [17]: 95.3%; viability, T/C [18]: 99.2%; viability, T/C [22]: 96.3%; viability, T/C [23]: 107%; viability, T/C [24]: 102%; viability, T/C [25]: 98.3%; viability, T/C [26]: 96.9%; viability, T/C [27]: 95.6%; viability, T/C [28]: 90.5%; viability, T/C [29]: 94.7%; viability, T/C [30]: 88.8%
CC1COCCN1c1cc(-c2ccnn2C)c2ccnc(-c3ccn[nH]3)c2n1 (stereo not given) + Cc1ccccc1N=Nc1ccc(NC(=O)c2ccnn2C)c(C)c1 | 620 | 500 | 475 | 495 | 538 | 98.1 | 85.8 | 68.6 | 37.2 | 95.2 | 83.8 | 58.7 | 37.2 | 101 | 84.8 | 57.4 | 37.3 | 92.1 | 81.5 | 58 | viability, T/C (second compound 0.1 µM, first compound 0.00316 µM): 110%; viability, T/C (second compound 0.1 µM, first compound 0.01 µM): 96.3%; viability, T/C (second compound 0.316 µM, first compound 0.00316 µM): 94.3%; viability, T/C (second compound 0.316 µM, first compound 0.01 µM): 106%; viability, T/C (second compound 1 µM, first compound 0.00316 µM): 97.8%; viability, T/C (second compound 1 µM, first compound 0.01 µM): 98.2%; viability, T/C (second compound 3.16 µM, first compound 0.00316 µM): 99.7%; viability, T/C (second compound 3.16 µM, first compound 0.01 µM): 101%; viability, T/C [22]: 37%; viability, T/C (second compound 10 µM, first compound 0.00316 µM): 89.9%; viability, T/C (second compound 10 µM, first compound 0.01 µM): 89.2%; viability, T/C [25]: 89.1%; viability, T/C [26]: 66.2%; viability, T/C [27]: 60.5%; viability, T/C [28]: 41%
COc1ccc([C@@H](O)c2cc(-c3ncnc4cc(N5CCOCC5)ccc34)c(F)cc2Cl)nn1 + Cc1ccccc1N=Nc1ccc(NC(=O)c2ccnn2C)c(C)c1 | > 10000 | > 10000 | > 10000 | > 10000 | > 10000 | 92.6 | 106 | 114 | 121 | 98.1 | 95.7 | 104 | 104 | 96.6 | 92 | 94.6 | 114 | 96.7 | 100 | 91.8 | viability, T/C [5]: 124%; viability, T/C [6]: 96.6%; viability, T/C [11]: 111%; viability, T/C [12]: 99.8%; viability, T/C [17]: 129%; viability, T/C [18]: 97%; viability, T/C [22]: 103%; viability, T/C [23]: 112%; viability, T/C [24]: 84.4%; viability, T/C [25]: 94.6%; viability, T/C [26]: 94.2%; viability, T/C [27]: 90.8%; viability, T/C [28]: 91%; viability, T/C [29]: 91.4%; viability, T/C [30]: 53.6%
COc1cccc2c1C(=O)c1c(O)c3c(c(O)c1C2=O)CC(O)(C(=O)CO)CC3OC1CC(N)C(O)C(C)O1 (stereo not given) + Cc1cncc(-c2nc(NCCc3c[nH]c4ccccc34)c3ncn(C(C)C)c3n2)c1 | < 31.6 | < 31.6 | < 31.6 | < 31.6 | < 31.6 | 28.3 | 17.7 | 5 | 0.93 | 26.7 | 16.3 | 4.84 | 0.28 | 27.6 | 15 | 4.86 | 0.26 | 21.4 | 15.9 | 4.37 | viability, T/C [5]: 0.14%; viability, T/C [6]: 0.22%; viability, T/C [11]: 0.12%; viability, T/C [12]: 0.18%; viability, T/C [17]: 0.16%; viability, T/C [18]: 0.25%; viability, T/C [22]: 0.22%; viability, T/C [23]: 0.16%; viability, T/C [24]: 0.28%; viability, T/C [25]: 8.93%; viability, T/C [26]: 5.47%; viability, T/C [27]: 3.18%; viability, T/C [28]: 0.37%; viability, T/C [29]: 0.16%; viability, T/C [30]: 0.24%
